Results on five molecules are retold here after publication PMC5596338 (Journal of Bone and Mineral Research, 2017).

The nature of data set [1]: Mineral binding affinity: elution from hydroxyapatite (HAP) columns by FPLC. It is filed as physicochemical. The conditions noted are these: HAP column, mean ± SE.
Data set [2] relates to bone resorption (metaphyseal BMD). Nature of the data set: Growing rat model adapted from the Schenk assay: BMD of proximal tibial metaphysis by DXA. The format is in vivo. The conditions noted are these: growing male Sprague Dawley rats, s.c. daily for 7 days. The protocol: The antiresorptive potency of OX14 was measured by its effect on increasing BMD compared to ALN, ZOL, RIS, and MIN in a growing rat model adapted from the Schenk assay.26, 27 These studies were performed at the Procter & Gamble Health Sciences Center, Mason, OH, USA from 2007 to 2010, as part of the program of screening new bisphosphonates. Male Sprague Dawley rats (6 weeks old, weighing 120 to 150 g) were randomized into groups (n = 6) based on body weight. All groups received treatment by subcutaneous (s.c.) injection at the same time daily for 7 days. The first treatment was on day 0, and the last treatment on day 6, with animals euthanized by cervical dislocation on day 7. BMD of the proximal metaphysis of the right tibia was analyzed using dual‐energy X‐ray analysis (DXA) using a Hologic QDR‐4500 densitometer (Hologic, Inc., Waltham, MA, USA). Efficacy of each bisphosphonate was expressed as percentage change from the vehicle control group. The dose that increased BMD 20% greater than the control was determined via a logistic dose‐response relationship (SAS Institute, Inc., Cary, NC, USA), which estimates an efficacy value using animals in the study, and for comparison of bisphosphonates across studies. Data from compounds run in multiple studies was averaged.

Data set [3] can be described thus: Short-term (24-hour) skeletal retention based on urinary excretion after i.v. dosing. The format is in vivo, Sprague Dawley rats. The conditions noted are these: for Percentage of the dose excreted in urine over 24 hours / Skeletal retention (% of administered dose): rats, i.v.; for Percentage of the dose excreted in urine over 24 hours: 0 to 24 hours, mean ± standard deviation, averaged from all studies; for Skeletal retention (% of administered dose): calculated as dose administered minus urinary excretion over 24 hours.

In data set [4] the test system is bone (BV/TV, osteoclasts, osteoblasts). Nature of the data set: In vivo OX14 dose response study in non-tumor-bearing mice (µCT and histomorphometry of tibias). Details: species or system C57BL/6J mice. The protocol:
Tibias were then assessed by μCT and histological analyzes as described below (see Assessment of bone integrity). […] Bruker) and analyzed using CTAn (v. 1.12; Bruker). The number and area of cortical bone lesions (pixels^2) were assessed by taking the μCT datasets, removing the trabecular bone and then volume-rendering the datasets to create 3D models using […] (version 1.0; ANUVizlab, Canberra, Australia), followed by analysis of three different sides of the bone using ImageJ software (version 1.47; NIH, Bethesda, MD, USA; https://imagej.nih.gov/ij/). After decalcification, wax embedding, and sectioning of the tibias, the numbers of osteoclasts (following tartrate-resistant acid phosphatase [TRAP] staining) were assessed using OsteoMeasure Advanced Bone Histomorphometry Video System (Osteometrics, Inc., Decatur, GA, USA) and standard histomorphometric methods.28

Data set [5] deals with JJN3 myeloma cells in NSG mice. Nature of the data set: JJN3-NSG murine model of myeloma-induced bone disease. The format is in vivo. The conditions noted are these: for Osteoclast number (cortico-endosteal surface) / Cortical bone lesions by μCT / Osteolytic disease by μCT / Tumor burden by flow cytometric analysis of femoral bone marrow flushes / BV/TV by μCT: ZOL 28.4, OX14 23 µg P/kg s.c. 2×/week; for Osteoclast number (cortico-endosteal surface): tumor mice; for Cortical bone lesions by μCT / Osteolytic disease by μCT / BV/TV by μCT: vs tumor control; for BV/TV by μCT: tumor-bearing mice. The protocol:
Female NSG mice (7 to 8 weeks old, weighing 19 to 23 g) were randomized based on weight into four groups (n = 8/group). Group 1 was a non–tumor‐bearing control group (naive). Groups 2 to 4 were injected via the tail vein with 1 × 10^6 JJN3 cells and then treated twice a week s.c. from the time of tumor cell injection for the duration of the study with vehicle control (PBS, group 2), ZOL (28.4 µg P/kg, group 3), or OX14 (23 µg P/kg, group 4). At the first signs of morbidity (after 3 weeks) all animals were anesthetized ([…] and 2% oxygen by inhalation) for cardiac bleeding and euthanized by cervical dislocation. Bone disease and tumor burden were assessed as described below (see Analysis of tumour burden).
At euthanasia, the right tibias were dissected free of soft tissue and fixed in 10% formalin before µCT analysis was used to measure the percentage of BV/TV. Tibias were scanned on a Skyscan 1272 (Bruker, Kontich, Belgium) at 4.3 μm with a 0.7‐degree rotation step, reconstructed using NRecon (v. 1.6.9.4; Bruker) and analyzed using CTAn (v. 1.12; Bruker). The number and area of cortical bone lesions (pixels^2) were assessed by taking the µCT datasets, removing the trabecular bone and then volume‐rendering the datasets to create 3D models using Drishti (version 1.0; ANUVizlab, Canberra, Australia), followed by analysis of three different sides of the bone using ImageJ software (version 1.47; NIH, Bethesda, MD, USA; https://imagej.nih.gov/ij/). After decalcification, wax embedding, and sectioning of the tibias, the numbers of osteoclasts (following tartrate‐resistant acid phosphatase [TRAP] staining) were assessed using OsteoMeasure Advanced Bone Histomorphometry Video System (Osteometrics, Inc., Decatur, GA, USA) and standard histomorphometric methods.28
Tumor burden was assessed on sections of tibias that had been stained with hematoxylin and eosin, where the distinct morphology of the myeloma cells distinguishes them from normal marrow. The proportion of bone marrow occupied by the myeloma cells was assessed using OsteoMeasure and expressed as a percentage of the whole bone section area as described.22 Tumor burden was also assessed in bone marrow flushes of the left femora by flow cytometry using an anti‐human HLA‐ABC‐APC antibody and an isotype‐matched control (R&D Systems, Minneapolis, MN, USA) as described.29, 30

Data set [6] can be described thus: Adverse side effects observed across all in vivo studies. Details: species or system rats and mice. An excerpt: Sprague Dawley rats, C57BL/6J and NOD/SCID‐γ (NSG, NOD.Cg‐Prkdcscid Il2rgtm1Wjl/SzJ) mice were purchased from Charles River Laboratories (Wilmington, MA, USA/Margate, UK). All animals were housed in cages under standard conditions (12‐hour light/dark cycle). NSG mice were housed in specific‐pathogen‐free conditions. All animals were healthy and pathogen‐free at the start of each study and once each study had commenced they were monitored daily for any unexpected adverse effects. […] Similar calculations were used to determine group numbers in non–tumor‐bearing animals based on previously observed changes in bone (BMD or trabecular bone fraction [BV/TV]).

The test system of data set [7] is experimentally induced inflammatory colitis. Further details: method as in earlier work. The conditions noted are these: cited from earlier work.

The structures appear in SMILES notation.

On to `O=P(O)(O)C(F)(Cc1cnc2ccccn12)P(=O)(O)O` [OX14, 1‐fluoro‐2‐(imidazo‐[1,2‐α]pyridin‐3‐yl)‐ethyl‐bisphosphonate], for which the “HAP affinity (mean retention time/min)” value in data set [1] came out at 6.17 ± 0.08 min. Also, in data set [2], the “Dose required to increase BMD by 20% greater than control” value amounted to 0.30 μg P/kg. In addition, in data set [3], the “Percentage of the dose excreted in urine over 24 hours” value (from here on “Percentage of the dose excreted”) was 52.85% ± 3.82 and the “Skeletal retention (% of administered dose)” value was 47.15 ± 3.82 % of administered dose. The “BV/TV by μCT” value in data set [4] (OX14 23 µg P/kg s.c. 2×/week, 3 weeks, vs vehicle) is given as “increased BV/TV”. The “BV/TV by μCT” value in data set [4] (OX14 2.3 and 0.23 µg P/kg s.c. 2×/week, 3 weeks, vs vehicle) is listed as “not significantly different from the vehicle control group”. Moreover, the “Osteoclast perimeter on the trabecular bone perimeter” value in data set [4] (OX14 2.3 and 0.23 µg P/kg, vs vehicle control) was “neither of the lower doses of OX14 produced significant reductions”. In data set [5] (OX14 23 µg P/kg s.c. 2×/week), the “Tumor burden (overall statement)” value is reported as “not to reduce tumor burden”. Besides, in data set [5], the “Osteoclast number (cortico-endosteal surface)” value is recorded as “significant reduction in osteoclast number”, the “Cortical bone lesions by μCT” value is given as “significantly reduced”, the “Osteolytic disease by μCT” value is given as “prevented the osteolytic disease” and the “BV/TV by μCT” value is on record as “significantly higher”. The “Tumor burden by flow cytometric analysis of femoral bone marrow flushes” value in data set [5] (vs tumor control (JJN3)) is given as “no significant reduction in tumor burden”. Besides, the “Adverse side effects (loss or gain of weight, liver toxicity, or death)” value in data set [6] was “no adverse side effects”. The “Prevention of experimentally induced inflammatory colitis” value in data set [7] is reported as “effectiveness in preventing experimentally induced inflammatory colitis”.
Consider `O=P(O)(O)C(O)(Cc1cccnc1)P(=O)(O)O` [Risedronate, risedronate], for which the “HAP affinity (mean retention time/min)” value in data set [1] is on record as 9.97 ± 0.18 min. The “Dose required to increase BMD by 20% greater than control” value in data set [2] is given as 0.45 μg P/kg. Moreover, the “% excretion (urine, 24 h)” value in data set [3] (RIS co-dosed with MIN or OX14) is reported as 32.5 ± 0.1%; in data set [3] (RIS co-dosed with equal or greater amounts of ALN or ZOL), 43.2 ± 2.6%; in data set [3] (RIS dose 0.1 mg) it was 38.1 ± 5.6%; in data set [3] (RIS dose 0.5 mg) it was 45.1 ± 1.0%; in data set [3] (RIS dose 1 mg) it was 43.0 ± 1.8%. In addition, in data set [3], the “Percentage of the dose excreted” value was 34.91% ± 9.3. Moreover, the “Skeletal retention (% of administered dose)” value in data set [3] is recorded as 65.1 ± 9.31 % of administered dose.
`NCCCC(O)(P(=O)(O)O)P(=O)(O)O` [Alendronate, alendronate]: in data set [2], the “Dose required to increase BMD by 20% greater than control” value is 1.52 μg P/kg.
For the molecule `O=P(O)(O)C(O)(Cc1cnc2ccccn12)P(=O)(O)O` [Minodronate, minodronate], the “HAP affinity (mean retention time/min)” value in data set [1] is on record as 10.33 ± 0.18 min. In data set [2], the “Dose required to increase BMD by 20% greater than control” value came out at 0.11 μg P/kg. In data set [3], the “Percentage of the dose excreted” value is 44.80% ± 1.6 and the “Skeletal retention (% of administered dose)” value was 55.2 ± 1.6 % of administered dose.
On to `O=P(O)(O)C(O)(Cn1ccnc1)P(=O)(O)O` [Zoledronate, zoledronate], for which the “HAP affinity (mean retention time/min)” value in data set [1] stood at 12.53 ± 0.1 min. In data set [2], the “Dose required to increase BMD by 20% greater than control” value was found to be 0.08 μg P/kg. Besides, in data set [3], the “Percentage of the dose excreted” value is 27.95% ± 3.18 and the “Skeletal retention (% of administered dose)” value is 72.05 ± 3.18 % of administered dose. The “Number of osteoblasts on the trabecular bone surface” value in data set [4] (ZOL 28.4 µg P/kg s.c. 2×/week, 3 weeks, vs vehicle) is “significant reduction in osteoblasts”. The “Tumor burden by histological analysis of tibias” value in data set [5] (28.4 µg P/kg ZOL s.c. 2×/week, vs tumor control (JJN3)) is given as “significant reduction in tumor burden”. Further, in data set [5], the “Osteoclast number (cortico-endosteal surface)” value is “significant reduction in osteoclast number”, the “Cortical bone lesions by μCT” value is “significantly reduced”, the “Osteolytic disease by μCT” value was “prevented the osteolytic disease” and the “BV/TV by μCT” value is listed as “significantly higher”. Moreover, in data set [5] (vs tumor control (JJN3)), the “Tumor burden by flow cytometric analysis of femoral bone marrow flushes” value is “no significant reduction in tumor burden”.
